{"source": "patent US4764361A", "about": "“Pharmaceutical compositions” (Imperial Chemical Industries PLC, priority 1987, dated 1988)", "assay_type_in_all_cases": "in vivo", "key": {"cardiovasculature": {"tested_on": "cardiovasculature", "test": "adverse effects on the cardiovasculature after topical administration", "conditions": "large doses administered topically to the skin"}, "[1]": {"tested_on": "oxazolone induced contact dermatitis (erythema)", "test": "Test C: oxazolone induced contact dermatitis in the domestic pig", "protocol": "(c) in a standard test involving oxazolone induced contact dermatitis in the domestic pig (Test C).\nMethod: Domestic pigs were sensitised by topical application of 0.4 ml of a 10% w/v solution of oxazolone in acetone to the neck region on two occasions two weeks apart. Six paired sites were then prepared and delineated with one site from each pair to the left and one to the right of the mid-line of the back of the animal. […] The left hand site of the second three pairs was similarly treated with 0.05 ml of a second solution of the test compound in acetone at pH 5. All of the righthand sites were used as controls and were treated with 0.05 ml of acetone (acidified to pH 5 with citric acid). After 24 hours, the same treatment was repeated followed immediately by a challenge of 0.025 ml of a 1% w/v solution of oxazolone in acetone to the 1st and 4th pairs of sites, of 5% w/v solution of oxazolone in acetone to the 2nd and 5th pair of sites, and of 10% w/v solution of oxazolone in acetone to the 3rd and 6th pairs of sites. […] An inflammatory index was obtained by multiplying the area and erythema readings together. By comparison of the values for the treated and control sites, the percentage reduction in erythema of the test compound could be assessed."}, "[2]": {"tested_on": "inflammation on the mouse ear induced by the irritant, croton oil", "test": "Test A: inhibition of inflammation on the mouse ear induced by croton oil", "conditions": "for % Inhibition / % increase in ear weight ± SEM / ED50 application rate: topical; for % Inhibition / % increase in ear weight ± SEM: 4 hours; for ED50 application rate: Test A; for activity as topical anti-inflammatory agent: application rate of 250 micrograms/ear", "protocol": "(a) in a standard test involving the inhibition of inflammation on the mouse ear induced by the irritant, croton oil (Test A);\n(a) Method: Groups of mice were dosed with an acetone solution of test compound or vehicle (acetone) pre-mixed with an equal volume of 4% w/v croton oil in acetone topically to the right ear (10 μl volume). Four hours later, the animals were killed and both the left (control) and right (treated) ears were removed and weighed. The percentage increase in ear weight of the treated against control was then calculated. The anti-inflammatory activity was finally expressed as percentage inhibition for the test compound dosed group in comparison with the vehicle dosed control group."}, "[3]": {"tested_on": "delayed hypersensitivity reaction to the contact irritant oxazolone", "test": "Test B: inhibition of the delayed hypersensitivity reaction to oxazolone in mice", "conditions": "for Inhibition: 24 hours, free base in acidified acetone pH 5", "protocol": "(b) in a standard test involving the inhibition of the delayed hypersensitivity reaction to the contact irritant, 4-ethoxymethylene-2-phenyloxazolone (hereinafter referred to as oxazolone) in mice (Test B); and\n(a) Method: Mice were sensitised by the topical application of a 10 μl portion of a 0.5% w/v solution of oxazolone in acetone. After 7 days, a 10 μl portion of a solution of the test compound in acetone (acidified to pH 5 with citric acid*) or, for control purposes, just the acidified acetone vehicle, was applied to the right ears of the mice and immediately followed by an application of 10 μl of 0.5% w/v solution of oxazolone in acetone. After 24 hours the animals were killed, the ears removed and results calculated as for Test A above.\n*Note: acidified acetone was used to eliminate any possible reaction between the basic test compound of formula I and the oxazolone.]"}, "[4]": {"conditions": "Average of experiments 1-3, 2% w/v in acetone pH 5"}, "[5]": {"conditions": "Experiment 1, 2% w/v in acetone pH 5, listed as (-)-optically active (S) form"}, "[6]": {"conditions": "Experiment 2, 2% w/v in acetone pH 5"}, "[7]": {"conditions": "Experiment 3, 2% w/v in acetone pH 5"}, "[8]": {"conditions": "cream formulation II, 0.25% w/w"}, "[9]": {"conditions": "1% w/v in aqueous ethanol containing 40% w/v N-methylpyrrolidone"}}, "note": "Values joined by “and” are separate entries in the source; they are usually repeats but may differ in a detail not shown here. Equal entries are not always repeated."}
{"molecule": "CC(C)C(=O)NCCNCC(O)COc1ccccc1", "note": "(racemic) [compound of formula I, N-(2-[2-hydroxy-3-phenoxypropyl]aminoethyl)isobutyramide]", "values": [{"measurement": "adverse effects on the cardiovasculature", "setting": "cardiovasculature", "value": "no adverse effects on the cardiovasculature"}, {"measurement": "overt toxic or adverse effects", "setting": "[1]; during Test C", "value": "no overt toxic or adverse effects were observed"}]}
{"molecule": "CC(C)C(=O)NCCNCC(O)COc1ccccc1", "note": "(racemic) [racemate, N-(2-[2-hydroxy-3-phenoxypropyl]aminoethyl)isobutyramide]", "values": [{"measurement": "% Inhibition", "setting": "[2]; 2.5 μg/ear", "value": 25.6, "unit": "%"}, {"measurement": "% increase in ear weight ± SEM", "setting": "[2]; 2.5 μg/ear", "value": "59.1 ± 5.92", "unit": "%"}, {"measurement": "% Inhibition", "setting": "[2]; 25 μg/ear", "value": 49.3, "unit": "%"}, {"measurement": "% increase in ear weight ± SEM", "setting": "[2]; 25 μg/ear", "value": "40.2 ± 4.88", "unit": "%"}, {"measurement": "% Inhibition", "setting": "[2]; 250 μg/ear", "value": 61.8, "unit": "%"}, {"measurement": "% increase in ear weight ± SEM", "setting": "[2]; 250 μg/ear", "value": "30.3 ± 4.0", "unit": "%"}, {"measurement": "ED50 application rate", "setting": "[2]", "value": 44, "unit": "micrograms/ear"}]}
{"molecule": "CC(C)C(=O)NCCNC[C@H](O)COc1ccccc1", "note": "[(-)-(S) form, (-)-N-(2-[2-hydroxy-3-phenoxypropyl]aminoethyl)isobutyramide]", "values": [{"measurement": "% of sites in which erythema is inhibited by 30%", "setting": "[1]; [4]", "value": 71, "unit": "%"}, {"measurement": "% of sites in which erythema is inhibited by 50%", "setting": "[1]; [4]", "value": 53, "unit": "%"}, {"measurement": "% of sites in which erythema is inhibited by 70%", "setting": "[1]; [4]", "value": 16, "unit": "%"}, {"measurement": "% of sites in which erythema is inhibited by 30%", "setting": "[1]; [5]", "value": "80% and 73%"}, {"measurement": "% of sites in which erythema is inhibited by 50%", "setting": "[1]; [5]", "value": "60% and 36%"}, {"measurement": "% of sites in which erythema is inhibited by 30%", "setting": "[1]; [6]", "value": 50, "unit": "%"}, {"measurement": "% of sites in which erythema is inhibited by 50%", "setting": "[1]; [6]", "value": 50, "unit": "%"}, {"measurement": "% of sites in which erythema is inhibited by 70%", "setting": "[1]; [6]", "value": 17, "unit": "%"}, {"measurement": "% of sites in which erythema is inhibited by 30%", "setting": "[1]; [7]", "value": 83, "unit": "%"}, {"measurement": "% of sites in which erythema is inhibited by 50%", "setting": "[1]; [7]", "value": 67, "unit": "%"}, {"measurement": "% of sites in which erythema is inhibited by 70%", "setting": "[1]; [7]", "value": 17, "unit": "%"}, {"measurement": "% of sites in which erythema is inhibited by 30%", "setting": "[1]; [8]", "value": 86, "unit": "%"}, {"measurement": "% of sites in which erythema is inhibited by 50%", "setting": "[1]; [8]", "value": 29, "unit": "%"}, {"measurement": "% of sites in which erythema is inhibited by 70%", "setting": "[1]; [8]", "value": 14, "unit": "%"}, {"measurement": "% of sites in which erythema is inhibited by 30%", "setting": "[1]; cream formulation II, 0.5% w/w", "value": 86, "unit": "%"}, {"measurement": "% of sites in which erythema is inhibited by 50%", "setting": "[1]; cream formulation II, 0.5% w/w", "value": 29, "unit": "%"}, {"measurement": "% of sites in which erythema is inhibited by 70%", "setting": "[1]; cream formulation II, 0.5% w/w", "value": 29, "unit": "%"}, {"measurement": "% of sites in which erythema is inhibited by 30%", "setting": "[1]; cream formulation II, 1% w/w", "value": 88, "unit": "%"}, {"measurement": "% of sites in which erythema is inhibited by 50%", "setting": "[1]; cream formulation II, 1% w/w", "value": 75, "unit": "%"}, {"measurement": "% of sites in which erythema is inhibited by 70%", "setting": "[1]; cream formulation II, 1% w/w", "value": 50, "unit": "%"}, {"measurement": "% of sites in which erythema is inhibited by 30%", "setting": "[1]; cream formulation II, 2% w/w", "value": 100, "unit": "%"}, {"measurement": "% of sites in which erythema is inhibited by 50%", "setting": "[1]; cream formulation II, 2% w/w", "value": 80, "unit": "%"}, {"measurement": "% of sites in which erythema is inhibited by 70%", "setting": "[1]; cream formulation II, 2% w/w", "value": 80, "unit": "%"}, {"measurement": "% Inhibition", "setting": "[2]; 4.9 μg/ear", "value": 23.8, "unit": "%"}, {"measurement": "% increase in ear weight ± SEM", "setting": "[2]; 4.9 μg/ear", "value": "65.2 ± 3.17", "unit": "%"}, {"measurement": "% Inhibition", "setting": "[2]; 14.8 μg/ear", "value": 46.5, "unit": "%"}, {"measurement": "% increase in ear weight ± SEM", "setting": "[2]; 14.8 μg/ear", "value": "45.8 ± 3.96", "unit": "%"}, {"measurement": "% Inhibition", "setting": "[2]; 44.4 μg/ear", "value": 52.2, "unit": "%"}, {"measurement": "% increase in ear weight ± SEM", "setting": "[2]; 44.4 μg/ear", "value": "40.9 ± 4.02", "unit": "%"}, {"measurement": "% Inhibition", "setting": "[2]; 133.3 μg/ear", "value": 66.5, "unit": "%"}, {"measurement": "% increase in ear weight ± SEM", "setting": "[2]; 133.3 μg/ear", "value": "28.6 ± 3.56", "unit": "%"}, {"measurement": "% Inhibition", "setting": "[2]; 400 μg/ear", "value": 91.8, "unit": "%"}, {"measurement": "% increase in ear weight ± SEM", "setting": "[2]; 400 μg/ear", "value": "7.0 ± 1.25", "unit": "%"}, {"measurement": "ED50 application rate", "setting": "[2]", "value": 29, "unit": "micrograms/ear"}, {"measurement": "Inhibition", "setting": "[3]; 2.5 μg/ear", "value": "20 ± 8", "unit": "%"}, {"measurement": "Inhibition", "setting": "[3]; 25 μg/ear", "value": "35 ± 9", "unit": "%"}, {"measurement": "Inhibition", "setting": "[3]; 250 μg/ear", "value": "60 ± 7", "unit": "%"}, {"measurement": "ED50", "setting": "[3]; calculated from the dose-inhibition table", "value": 91, "unit": "μg/ear"}]}
{"molecule": "CCCCC(=O)O[C@]1(C(=O)CO)[C@@H](C)C[C@H]2[C@@H]3CCC4=CC(=O)C=C[C@]4(C)[C@@]3(F)[C@@H](O)C[C@@]21C", "note": "[BV, betamethasone-17-valerate, reference compound]", "values": [{"measurement": "% of sites in which erythema is inhibited by 30%", "setting": "[1]; [9]", "value": 75, "unit": "%"}, {"measurement": "% of sites in which erythema is inhibited by 50%", "setting": "[1]; [9]", "value": 38, "unit": "%"}, {"measurement": "% of sites in which erythema is inhibited by 70%", "setting": "[1]; [9]", "value": 25, "unit": "%"}]}
{"molecule": "C[C@]12CCC(=O)C=C1CC[C@@H]1[C@@H]2[C@@H](O)C[C@@]2(C)[C@H]1CC[C@]2(O)C(=O)CO", "note": "[hydrocortisone, reference compound]", "values": [{"measurement": "% of sites in which erythema is inhibited by 30%", "setting": "[1]; [9]", "value": 67, "unit": "%"}, {"measurement": "% of sites in which erythema is inhibited by 50%", "setting": "[1]; [9]", "value": 28, "unit": "%"}, {"measurement": "% of sites in which erythema is inhibited by 70%", "setting": "[1]; [9]", "value": 6, "unit": "%"}, {"measurement": "Inhibition", "setting": "[2]; similar test conditions, 25 μg/ear", "value": "approximately 70%"}]}
{"molecule": "CC(C)NCC(O)COc1cccc2ccccc12", "note": "(stereo not drawn) [propranolol, reference compound]", "values": [{"measurement": "activity as topical anti-inflammatory agent", "setting": "[2]", "value": "inactive"}]}
{"molecule": "CC(C)C(=O)NCCNC[C@@H](O)COc1ccccc1", "note": "[reference compound]", "values": [{"measurement": "activity as topical anti-inflammatory agent", "setting": "[2]", "value": "inactive"}]}
{"molecule": "O=C(NCCNCC(O)COc1ccc(O)cc1)N1CCOCC1", "note": "(stereo not drawn) [xamoterol, reference compound]", "values": [{"measurement": "activity as topical anti-inflammatory agent", "setting": "[2]", "value": "inactive"}]}
